This note sets out measurements from PubChem BioAssay (NCI).

SMILES strings stand for the structures. Several values for one entry are separate records, joined by “and”; a condition that tells them apart may be missing. Equal values may be shown once.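 Briefly, cells in 96-well plates were exposed to five compound concentrations for 48 h, and endpoints were estimated by linear interpolation. At the GI50, growth is halved. At the TGI there is no net growth.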

The subject of this assay is MDA-MB-468 breast. Nature of the assay: inhibition of tumour cell growth, NCI panel, 48 h.
As to `CC(C)OC(=O)OCOP(=O)(OCOC(=O)OC(C)C)C1CCCN(O)C1=O` (stereo not given), the GI50 is 1.61 µM and the TGI is over 100 µM.

On to `CNC(=S)N/N=C/CSC/C=N/NC(=S)NC`, for which the GI50 is over 100 µM and the TGI is over 100 µM.

In the case of `O=C1Nc2ccc(I)cc2/C1=C/c1cc(Br)c(O)c(Br)c1`, the GI50 is > 18.9 µM and 15.9 µM; the TGI is > 25 µM and 57.5 µM.

For `N#Cc1cccc(/C(N)=N/C(N)=N/c2nc3ccccc3s2)c1`, the GI50 was 0.415 µM.

For `Cc1ccc(CNc2ccc(Cl)cc2NCc2ccc(C)c(O)c2)cc1O`, the GI50 is 8.05 µM and the TGI was determined as 16.8 µM.

With `FC(F)(F)c1ccc(-c2cnc(-c3nn[nH]n3)nc2NC2CCCCCC2)cc1`, the GI50 is over 10 µM and the TGI is over 10 µM.

Consider `CC1(C)CC[C@]2(C(=O)O)CC[C@]3(C)C(=CC[C@@H]4[C@@]5(C)C/C(=C/c6cccnc6)[C@H](O)C(C)(C)[C@@H]5CC[C@]43C)[C@@H]2C1`, for which the GI50 is 17.1 µM and the TGI was found to be 88.3 µM.

Take `C=C1C(=O)O[C@H]2[C@H]1CC/C(COC(=O)NCc1ccc(Cn3c(=O)sn(CCCI)c3=O)cc1)=C\CC[C@@]1(C)O[C@@H]21`: the GI50 was 1.54 µM and the TGI is 3.48 µM.

On to `Nc1nc(N)c2nc(CNc3ccc(C(=O)NC(CCC(=O)O)C(=O)O)cc3)cnc2n1` (stereo not given), for which the GI50 is 0.0357 µM and < 0.01 µM; the TGI was over 100 µM.

On to `Nc1nc(-c2ccccn2)c(-c2ccc3ncccc3n2)s1`, for which the GI50 was over 25 µM and the TGI is over 25 µM.

Regarding `COc1cc(C(=O)N[C@@H]2CCCN(C)C2)ccc1Nc1ncc2c(n1)N(C1CCCC1)CC(C)(C)C(=O)N2C`, the GI50 was 0.0177 µM and the TGI came to 3.39 µM.

For the molecule `COc1ccc(-c2cc(-c3ccc(Cl)cc3)c(C#N)c(=O)n2CCCCCC(=O)Nc2ccccc2N)cc1`, the GI50 was 3.24 µM and the TGI is 31.5 µM.

On to `CCN(CC)c1ccc(C=C2C(=O)NC(=S)NC2=O)cc1`, for which the GI50 was 2.37 µM and the TGI stood at 5.56 µM.

On to `Cc1n[nH]c(C)c1-c1c(C)n[nH]c1C`, for which the GI50 was 1.96 µM and the TGI turned out to be 4.75 µM.

`CCCN1CCCC(c2ccc(Nc3nc(Nc4cc(F)ccc4C(N)=O)c4cc[nH]c4n3)c(OC)c2)C1` (stereo not given): the GI50 was 3.25 µM and the TGI is 6.73 µM.

Turning to `COc1cc(-c2nn(-c3cccc(NC(=O)NCCNC(=O)c4ccccc4)c3)cc2-c2ccncc2)ccc1Cl`, the GI50 is 3.14 µM and the TGI was over 100 µM.

Take `Fc1cnccc1-c1nc2ccc3[nH]ncc3c2c2c1CCCC2`: the GI50 is 1.05 µM and the TGI is 7.86 µM.

For the molecule `CC(C)c1c(C(=O)Nc2ccccc2)c(-c2ccccc2)c(-c2ccc(F)cc2)n1CC[C@@H](O)C[C@@H](O)CC(=O)O`, the GI50 was 9.32 µM and the TGI was determined as 68.9 µM.

Turning to `NC1=Nc2cc(OCCCCN3Cc4ccccc4C3)c(OCC3CC3)cc2C12CCCC2`, the GI50 is 1.25 µM and the TGI was determined as 2.75 µM.

For `O=c1c2cc(F)ccc2sc2c(NCCCNCCO)nc3ccc(F)cc3c12`, the GI50 was 1.78 µM and the TGI worked out at 3.47 µM.

`CN1CC[C@H](N(C)C(=O)N2CC(c3cc(F)ccc3F)=C[C@@]2(CO)c2ccccc2)[C@H](F)C1`: the GI50 was 0.00514 µM.

For the molecule `Cc1cc(C)c(CNC(=O)c2cc(Cl)c3c(c2C)O[C@@](C)(C2CCC(N(C)C)CC2)O3)c(=O)[nH]1` (stereo not given in full), the GI50 was 24.1 µM and the TGI was over 100 µM.

Consider `CCc1ccc2cc3c(ccc4ccccc43)c3c2c1CC3`, for which the GI50 is 0.481 µM and the TGI was over 100 µM.

`C=C(C)[C@@H]1CC[C@]2(C(=O)OC)CC[C@]3(C)[C@H](CC[C@@H]4[C@@]5(C)CC/C(=N\OCCC(=NCCC#N)NOCCC#N)C(C)(C)[C@@H]5CC[C@]43C)[C@@H]12`: the GI50 is 2.02 µM and the TGI is over 50 µM.

As to `CCn1nc(C#Cc2c(C)ccc3c(Nc4ccc(Cl)cc4)nccc23)c2c(N)ncnc21`, the GI50 was 2.25 µM and the TGI worked out at 10.5 µM.

Consider `Nc1c2ccccc2nc2ccccc12`, for which the GI50 was 1.06 µM and 1.15 µM; the TGI is 2.85 µM and 2.88 µM.

Regarding `Cc1ccccc1C1N=C2Oc3ccccc3C=C2C(=O)N1` (stereo not given), the GI50 was 0.524 µM and the TGI was over 100 µM.

Regarding `N=C(N)c1ccc(-c2ccc(-c3cccs3)s2)cc1F`, the GI50 was 0.0464 µM and the TGI worked out at 0.256 µM.

In the case of `COc1cccc(-c2cc(-c3ccc(Nc4nc(Nc5ccc(Cl)cc5)nc(Nc5ccc(Cl)cc5)n4)cc3)nc(N)c2C#N)c1`, the GI50 is 2.18 µM and the TGI came to 4.79 µM.

For `CC(=O)Nc1ccc(S(=O)(=O)N2C(=O)CCC2C(=O)Nc2ccccc2)cc1` (stereo not given), the GI50 was 1.76 µM and the TGI came out at 19.2 µM.

As for `N/C(=N\O)c1cn(C2OC(CO)C(O)C2O)c2ncnc(N)c12` (stereo not given), the GI50 was 0.126 µM and the TGI amounted to 0.453 µM.

In the case of `CC[C@@]12CC(C(=O)OC)=C3Nc4ccccc4[C@@]34CCN(C[C@H]3O[C@H]31)[C@@H]24`, the GI50 was 21.5 µM and the TGI was found to be 98.7 µM.

Turning to `CN(C)c1ccc(-c2cc(-c3cccc(NS(C)(=O)=O)c3)nc(N)c2C#N)cc1`, the GI50 was 0.268 µM and the TGI stood at 1.17 µM.

Turning to `COc1cnc2c(c1)C(=O)c1c-2n(CCCN2CCNCC2)c(=O)c2cc(F)ccc12`, the GI50 is 0.205 µM and the TGI was determined as 0.784 µM.

Regarding `CC1(C)N=C(N)N=C(N)N1c1cccc(CC(=O)Nc2ccccc2)c1`, the GI50 is 22.1 µM and the TGI was over 100 µM.

`CC/C(=C\c1ccc(N(C)C)cc1)c1ccncc1`: the GI50 is 2.27 µM and the TGI was 7.32 µM.

As to `COc1cc(F)c(F)c(F)c1C(=O)c1cnc(NC2CCN(S(C)(=O)=O)CC2)nc1N`, the GI50 was 2.3 µM and the TGI was 7.27 µM.

For the molecule `Nc1ncnc2c1ncn2C1SC(CO)C(O)C1O` (stereo not given), the GI50 is 19.4 µM and the TGI was 58 µM.

Turning to `COC(=O)[C@@H](C)C[C@H](Cc1ccccc1)NC(=O)c1nc([C@@H](C[C@H](C(C)C)N(C)C(=O)[C@@H](NC(=O)[C@H]2CC(=O)CCN2C)C(C)C)OC(C)=O)sc1C(C)C`, the GI50 was 0.0258 µM and the TGI worked out at 0.129 µM.

Turning to `CN1CCN(c2ccc(Nc3nc(NCCCNS(=O)(=O)c4cccc(F)c4)c4sccc4n3)cc2)CC1`, the GI50 is 2.59 µM and the TGI worked out at 10.9 µM.

Consider `CC1(C)CCC(c2ccc(Cl)cc2)=C(CN2CCN(c3ccc(C(=O)NS(=O)(=O)c4ccc(N[C@H](CCN5CCOCC5)CSc5ccccc5)c(S(=O)(=O)C(F)(F)F)c4)cc3)CC2)C1`, for which the GI50 was 0.77 µM and the TGI amounted to 2.64 µM.

For `COc1cc2nc(NC3CCC3)nc(NC3CCN(C(C)C)CC3)c2cc1OC`, the GI50 is 1.37 µM and the TGI was 2.85 µM.

With `C=CN(C(=O)N1CCN(c2cc3c(cc2F)c(=O)c(C(=O)O)cn3C2CC2)CC1)c1nc(-c2ccc(C)cc2)cs1`, the GI50 is 2.86 µM and the TGI is 9.14 µM.

As to `CCOc1ccc(-c2nc3ccc(-c4nc5ccc(N6CCN(C)CC6)cc5[nH]4)cc3[nH]2)cc1OCC`, the GI50 is 1.58 µM and the TGI was found to be 4.6 µM.

For the molecule `O=c1[nH]c(-c2ccncc2)nc2sc3c(c12)CCCCCC3`, the GI50 was over 100 µM and the TGI was over 100 µM.

Regarding `O=c1[nH]c2c(ccc3cnccc32)c2c1CCC2`, the GI50 was 0.206 µM and the TGI was 0.549 µM.
